Results published in US20050075398A1, “Neuroprotectin D1 protects against cellular apoptosis, stroke damage, alzheimer's disease and retinal diseases” (priority 2003, published 2005).

Columns and labels:
COX-2 mRNA = COX-2 mRNA in IL-1β-exposed human neural progenitor cells; format: cell-based; conditions: p<0.05
Description: Human neural (HN) progenitor cells in primary culture. HN cells were grown to ˜70% confluence (˜50,000 cells per 3.5-cm diameter well) in 6-well COSTAR plates at 37° C., 5% CO2/20% O2/75% N2 in humidified air at 1 atm (normoxic conditions) in NPMM medium (Clonetics CC-4241) supplemented with hFGF, NSF-1, hEGF, GA-1000, as described by the manufacturer (Clonetics, Walkersville, Md.). HN cells tested negative for HIV-1, hepatitis B and C, mycoplasma, bacteria, yeast, and fungi, and positive for the glial and neuronal markers GFAP, MAP2, and β-tubulin III (Clonetics). After two weeks of development, HN cells were exposed to human recombinant interleukin 1-beta (IL-1β) (10 ng/ml) for 3 h in the presence or absence of 0.03, 0.3, 3.0, 30, and 300 nM 10,17S-docosatriene (NPD1), DHA, or PBS pH 7.4 (control). RNA and protein were quickly isolated using Trizol Reagent (Invitrogen, Carlsbad, Calif.) and stored at −81° C. within minutes of isolation.
COX-2 RNA abundance in hippocampus and HN cells. Abundance of human-specific COX-1 and COX-2 RNA message was assayed using RT-PCR as described in Bazan, N. G., and Lukiw, W. J. (2002) J. Biol. Chem. 277, 30359-30367.

Bcl-2 protein = experiment: Western analysis of Bcl-2 in HN cells; format: cell-based, human; conditions: 50 nM, p<0.05
Description: Western Analysis. Total protein was extracted, and 25 μg of protein was analyzed by Western blots using human Bcl-2, Bfl-1 (A1) and actin antibodies. […] Human specific anti-Bfl-1(A1)[Cat. No. sc-8351] was obtained from Santa Cruz Biotechnology (Santa Cruz, Calif.). For Western analysis, signal-intensity data were gathered by phosphorimaging onto molecular imaging screens (FUJIFILM) for 3-36 h using a Typhoon Molecular Imager system (Amersham Biosciences) as described in Bazan and Lukiw, 2002.
To confirm the above changes in Bcl-2 and Bfl-1(A1), Western analysis was performed using anti-Bcl-2, anti-Bfl-1(A1), and anti-actin primary antibodies (B3170 Sigma Life Science, sc-8351 Santa Cruz, and A2103 Sigma, respectively). The results of the Western analysis confirm up-regulation of Bcl-2 and Bfl-1(A1) anti-apoptotic proteins over actin controls in DHA- and NPD1-treated cells.

[1] = test system: IL-1β-induced HIF-1α activation; experiment: EMSA of HIF-1α in IL-1β-exposed human neural progenitor cells; format: cell-based; conditions: HN progenitor cells; IL-1β 10 ng/ml 3 h
Description: Human neural (HN) progenitor cells in primary culture. HN cells were grown to ˜70% confluence (˜50,000 cells per 3.5-cm diameter well) in 6-well COSTAR plates at 37° C., 5% CO2/20% O2/75% N2 in humidified air at 1 atm (normoxic conditions) in NPMM medium (Clonetics CC-4241) supplemented with hFGF, NSF-1, hEGF, GA-1000, as described by the manufacturer (Clonetics, Walkersville, Md.). HN cells tested negative for HIV-1, hepatitis B and C, mycoplasma, bacteria, yeast, and fungi, and positive for the glial and neuronal markers GFAP, MAP2, and β-tubulin III (Clonetics). […]
(§1) Electrophoretic mobility-shift assay (EMSA) of human AP1, HIF-1α, NF-κBp50/p65, and STAT-1α. Nuclear protein extracts (NPXTs) were prepared from one to three 3.5 cm-diameter wells of HN cells and quantitated. NPXTs (5 μg) derived from HN cells were incubated with[γ-^32P]-ATP (˜3000 Ci/mmol)-end-labeled AP1, HIF-1α, NF-κκBp50/p65, or STAT-1α consensus and mutant oligonucleotides in 5-μl volumes, reacted for 30 min on ice, analyzed on 5% or 10% acrylamide/90 mM Tris-borate pH 8.4, 1 mM EDTA (TBE) gels, dried onto 2-mm Whatman filter paper at 80° C. for 2 h, and phosphorimaged using a Typhoon Variable Mode Imager (Amersham Pharmacia Biotech, Piscataway, N.J. ).

B94 gene expression = experiment: HGU133 GeneChip DNA array in HN cells: B94; format: cell-based, human; conditions: Aβ42 25 μM, DHA 50 nM or NPD1 50 nM, 18 h, nsc = no significant change
From the text: RNA Isolation and Spectral Quality. Brain tissues were rapidly processed, and total RNA was extracted using Trizol reagent (Invitrogen, Carlsbad, Calif.). Total RNA quality and abundance were profiled using RNA Nano LabChips (Caliper Technologies, Mountainview, Calif.; Agilent Technologies, Palo Alto, Calif.).
Probe Synthesis and GeneChip Hybridization. Biotinylated antisense cRNAs were synthesized from cDNA using the Superscript Choice System (Invitrogen) and Enzo Biorray High Yield RNA Transcript Labeling kits according to the manufacturer's protocols (Affymetrix) and as described in Colangelo, V., Schurr, J., Ball, M. J., Pelaez, R. P., Bazan, N. G., Lukiw, W. J. (2002) J. Neurosci. Res., 70: 462-473; and Lukiw, W. J. (2004) Neurochem. Research, 29: 1287-1297. Probes were hybridized against HU133Av2 GeneChip DNA arrays that interrogate approximately 33,000 full-length […] genes and expressed sequence tag (EST) clusters. […]
GeneChip Data and Statistical Analysis. […] Volcano plots were plotted representing total gene expression patterns as a function of fold-change as compared to expression patterns of age-matched controls as plotted against p, as calculated by an analysis of variance (ANOVA). […] Statistical significance was analyzed using a two-way factorial analysis of variance (p, ANOVA; Statistical Analysis System; SAS Institute, Cary, N.C. ).

[2] = test system: NF-κB-DNA binding activity; experiment: EMSA of NF-κB in hippocampus after MCA-O; format: in vivo, mouse; conditions: ipsilateral hippocampus; 1 h MCA-O, 2 h reperfusion; infused into third ventricle 3 h at 0.25 μl/h (NPD1 0.16 μg/ml)
Description: as §1
FIGS. 7A, 7B, and 7C show mouse hippocampus after 1 h MCA-O was followed by 2 h reperfusion, where either vehicle, DHA, or 10,17S-docosatriene (NPD1) (0.16 μg/ml) was infused into the third ventricle for 3 h at 0.25 μl/h. […] NF-κB was increased over two fold in the ipsilateral hippocampus after MCA-O, and the infusion of either DHA or 10,17S-docosatriene (NPD1) inhibited ischemia-reperfusion-induced NF-κB activation by 28% and 48%, respectively (FIG. 7A).

CC/C=C\C[C@H](O)\C=C/C=C/C=C/[C@H](O)C/C=C\C/C=C\CCC(=O)O [NPD1, 10,17S-docosatriene]
effect on IL-1β-induced expression of COX-2 mRNA (COX-2 mRNA): inhibited | Bcl-2 protein increase over controls, normalized with actin (Bcl-2 protein): 2.3 fold | effect on IL-1β-induced HIF-1α activation [1]: but not IL-1β-induced HIF-1α activation, was inhibited | B94 gene expression, fold change over untreated controls (B94 gene expression): nsc | inhibition of ischemia-reperfusion-induced NF-κB activation [2]: 48%
